Assay results taken from patent publication US20230203043A1, “NOVEL IMIDAZOPYRAZINE DERIVATIVES” (Hoffmann-La Roche Inc., priority 2020, published 2023).
Structures can show the parent of a compound that is named as a salt.

What follows are compounds tested on Acinetobacter baumannii ATCC17961 (assay: Antimicrobial susceptibility testing: 90% growth inhibitory concentration (IC90) determination in Iso-Sensitest broth, OD600 growth). Conditions: Acinetobacter baumannii, ATCC17961, 16 h, read-out: A. baumannii ATCC 17961 IC90 (uM), strain ATCC 17961, OD600 growth over 16 h.
Type: cell-based
In short: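 Compounds were twofold serially diluted in DMSO across 10 points (e.g. 50 to 0.097 μM final) and inoculated at ~5×10^(5) CFU/ml. Plates incubated at 35±2° C, with OD600 read every 20 minutes over 16 h. IC90 was derived from growth inhibition during logarithmic growth.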
For `N#CCn1cc(-c2cnc3c(Nc4ccc(C(=O)N5CCN(C(=O)C6CCNCC6)CC5)c(Cl)c4)nccn23)c(C(F)(F)F)n1` [Example 366, 2-[4-[8-[3-chloro-4-[4-(piperidine-4-carbonyl)piperazine-1-carbonyl]anilino]imidazo[1,2-a]pyrazin-3-yl]-3-(trifluoromethyl)pyrazol-1-yl]acetonitrile formate], the IC90 was 0.296 µM. `Cc1cc(Nc2nccn3c(-c4cn(CC#N)nc4C(F)(F)F)cnc23)ccc1C(=O)NCCCNC(=O)[C@@H]1C[C@@H](O)CN1` [Example 367, (2S,4R)-N-[3-[[4-[[3-[1-(cyanomethyl)-3-(trifluoromethyl)pyrazol-4-yl]imidazo[1,2-a]pyrazin-8-yl]amino]-2-methylbenzoyl]amino]propyl]-4-hydroxypyrrolidine-2-carboxamide formate] gave an IC90 of 0.468 µM. Work on `Cc1cc(Nc2nccn3c(-c4cn(CC#N)nc4C(F)(F)F)cnc23)ccc1C(=O)NCCNC(=O)[C@@H]1C[C@@H](O)CN1` [Example 375, (2S,4R)-N-[2-[[4-[[3-[1-(cyanomethyl)-3-(trifluoromethyl)pyrazol-4-yl]imidazo[1,2-a]pyrazin-8-yl]amino]-2-methylbenzoyl]amino]ethyl]-4-hydroxypyrrolidine-2-carboxamide formate] yielded an IC90 of 0.338 µM. Work on `Cc1cc(Nc2nccn3c(-c4cn(CC#N)nc4C(F)(F)F)cnc23)ccc1C(=O)N1CCN(C(=O)N[C@H]2CNC[C@@H]2O)CC1` [Example 376, 4-[4-[[3-[1-(cyanomethyl)-3-(trifluoromethyl)pyrazol-4-yl]imidazo[1,2-a]pyrazin-8-yl]amino]-2-methylbenzoyl]-N-[(3S,4S)-4-hydroxypyrrolidin-3-yl]piperazine-1-carboxamide formate] yielded an IC90 of 0.43 µM.

Same assay, conditions: Acinetobacter baumannii, ATCC17961, 16 h, strain ATCC 17961, OD600 growth over 16 h, read-out: A. baumannii ATCC 17961 IC90
`NCCCNC(=O)c1ccc(Nc2nccn3c(-c4c[nH]nc4C(F)(F)F)cnc23)cc1Cl` [Example 364, N-(3-aminopropyl)-2-chloro-4-[[3-[3-(trifluoromethyl)-1H-pyrazol-4-yl]imidazo[1,2-a]pyrazin-8-yl]amino]benzamide] gave an IC90 of 1.13 µM. `CCc1cc(Nc2nccn3c(-c4c[nH]nc4C(F)(F)F)cnc23)ccc1C(=O)NCCCN` [Example 365, N-(3-aminopropyl)-2-ethyl-4-[[3-[3-(trifluoromethyl)-1H-pyrazol-4-yl]imidazo[1,2-a]pyrazin-8-yl]amino]benzamide hydrochloride] was tested, and the IC90 was 1.4 µM. Compound `O=C(NC1CC(NC(=O)[C@@H]2C[C@@H](O)CN2)C1)c1ccc(Nc2nccn3c(-c4c[nH]nc4C(F)(F)F)cnc23)cc1Cl` (stereo partly drawn) [Example 370, (2S,4R)-N-[3-[[2-chloro-4-[[3-[3-(trifluoromethyl)-1H-pyrazol-4-yl]imidazo[1,2-a]pyrazin-8-yl]amino]benzoyl]amino]cyclobutyl]-4-hydroxypyrrolidine-2-carboxamide] has an IC90 of 0.177 µM. Compound `O=C(NC1CN(C(=O)[C@@H]2C[C@@H](O)CN2)C1)c1ccc(Nc2nccn3c(-c4c[nH]nc4C(F)(F)F)cnc23)cc1Cl` [Example 371, 2-chloro-N-[1-[(2S,4R)-4-hydroxypyrrolidine-2-carbonyl]azetidin-3-yl]-4-[[3-[3-(trifluoromethyl)-1H-pyrazol-4-yl]imidazo[1,2-a]pyrazin-8-yl]amino]benzamide] has an IC90 of 0.309 µM. `CCc1cc(Nc2nccn3c(-c4c[nH]nc4C(F)(F)F)cnc23)ccc1C(=O)N1CCC(CN)CC1` [Example 372, [4-(aminomethyl)piperidin-1-yl]-[2-ethyl-4-[[3-[3-(trifluoromethyl)-1H-pyrazol-4-yl]imidazo[1,2-a]pyrazin-8-yl]amino]phenyl]methanone hydrochloride] showed an IC90 of 0.957 µM. With `O=C(NC1CCC(NC(=O)[C@@H]2C[C@@H](O)CN2)CC1)c1ccc(Nc2nccn3c(-c4c[nH]nc4C(F)(F)F)cnc23)cc1Cl` (stereo partly drawn) [Example 374, (2S,4R)-N-[4-[[2-chloro-4-[[3-[3-(trifluoromethyl)-1H-pyrazol-4-yl]imidazo[1,2-a]pyrazin-8-yl]amino]benzoyl]amino]cyclohexyl]-4-hydroxypyrrolidine-2-carboxamide] the IC90 was 0.237 µM.
